According to patent publication EP0978281B1, “EYEDROPS CONTAINING A LORATIDINE METABOLITE” (Schering-Plough Kabushiki Kaisha, priority 1997, dated 1998):

Tested on: IgE-immunized Rat Peritoneal Mast Cells
Experiment: cells
Conditions: Mast cell, read-out: % inhibition of Histamine Release

CCOC(=O)N1CCC(=C2c3ccc(Cl)cc3CCc3cccnc32)CC1 [Loratadine, ethyl 4-(8-chloro-5,6-dihydro-11H-benzo[5,6]cyclohepta[1,2-b]pyridin-11-ylidene)-1-piperidinecarboxylate]
inhibition at 0.3 µM: 19.8 ± 5.77%
inhibition at 1 µM: 27.1 ± 4.72%
inhibition at 3 µM: 45.8 ± 9.26%
inhibition at 10 µM: 73.3 ± 16.8%
